Assay: Hygroscopicity test according to CP2005 (RH 70%, 25° C.)
Assay type: physicochemical
Settings: sampling time 48 h, 5 grams of sample
Procedure: The erythromycin ethylsuccinate crystalline hydrate according to the present invention was stable during storage. The above sample was sealed in vials and subjected to accelerated stability test at 30° C. using HPLC (C18 reverse phase column, 4.6×250 mm, 5 μm), mobile phase: 10 mmol/L sodium dodecyl sulfate solution containing 0.1% triethylamine (pH adjusted to 3.4 with phosphoric acid)—acetonitrile (55:45), detection wavelength was 205 nm, and the flow rate is 1.0 ml/min, and the change of relevant substances and content was detected. […] According to CP2005, 5 grams of the sample of the present invention was, at 25° C., placed in a relative humidity of 70% in the test for hygroscopicity. It is surprising that erythromycin ethylsuccinate hydrate leads to less hygroscopic weight gain. […] In addition, the deliquescence of anhydride makes it necessary to isolate from air during processing to prevent adhesions, while the hydrate has good sliding properties, thereby improving the operability of the formulation.

| Substance | hygroscopic weight gain %, compared to 0 h [%] |
| --- | --- |
| Erythromycin Ethylsuccinate 0.5 H2O Hydrate | 0.2 |
| Erythromycin Ethylsuccinate 0.25 H2O Hydrate | 0.59 |

Reference: patent US9221862B2, “Erythromycin ethylsuccinate crystalline hydrate, preparation and uses thereof” (priority 2011, dated 2015)
